The record followed here is PubChem BioAssay (NCI).

Among the test systems are HCT-116 colon; LOX IMVI melanoma; SF-539 CNS; UACC-62 melanoma; MDA-MB-231 breast; SF-295 CNS; T-47D breast; IGROV1 ovarian; HOP-92 NSCLC; MALME-3M melanoma.
Holding throughout (assay): growth of human tumour cells (NCI), 48 h

Values joined by “and” are separate entries in the source; they are usually repeats but may differ in a detail not shown here. Equal entries are not always repeated.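 In this assay, cells in 96-well plates receive the compound at five concentrations for 48 hours. Endpoints are linearly interpolated between the surrounding concentrations. GI50 marks 50% less growth. TGI is the concentration that stops growth completely.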

Turning to `O=C(O)c1cscc1Cc1cccs1`, the TGI in the assay on HCT-116 colon, in the assay on LOX IMVI melanoma, in the assay on SF-539 CNS, in the assay on UACC-62 melanoma, in the assay on MDA-MB-231 breast and with SF-295 CNS was above 100 µM in each case. Also, the TGI in the assay on T-47D breast, in the assay on IGROV1 ovarian, with HOP-92 NSCLC and with MALME-3M melanoma was above 100 µM in each case.
On to `O=C(CNc1ncco1)Nc1ccc(S(=O)(=O)c2ccc(NC(=O)CNc3ncco3)cc2)cc1`, for which the GI50 in the assay on HCT-116 colon is 1.42 µM; in the assay with LOX IMVI melanoma, 0.308 µM; in the assay with SF-539 CNS, 1.7 µM; in the assay on UACC-62 melanoma it was 1.75 µM; in the assay with MDA-MB-231 breast, 2.66 µM; with T-47D breast, 1.87 µM. The results for the GI50 in the assay on IGROV1 ovarian, with HOP-92 NSCLC and in the assay with MALME-3M melanoma were 1.76 µM, 3.37 µM and 2.12 µM, respectively. The TGI in the assay on HCT-116 colon stood at 2.98 µM; in the assay with LOX IMVI melanoma, 1.92 µM; in the assay with SF-539 CNS it was 3.9 µM; in the assay with UACC-62 melanoma it was 3.65 µM; in the assay with MDA-MB-231 breast, 7.38 µM; with T-47D breast, 4.38 µM. The TGI in the assay with IGROV1 ovarian stood at 5.32 µM; with HOP-92 NSCLC, 13 µM; with MALME-3M melanoma, 4.56 µM.
As to `NC(=S)N/N=C\c1nccc2c(N)cccc12`, the GI50 in the assay with HCT-116 colon was 0.356 µM; in the assay on LOX IMVI melanoma it was 0.292 µM; in the assay on SF-539 CNS, 0.146 µM; with UACC-62 melanoma, 0.264 µM; with MDA-MB-231 breast, 0.471 µM; with SF-295 CNS it was 0.309 µM. Besides, the GI50 in the assay on T-47D breast was 0.454 µM; in the assay with IGROV1 ovarian, 0.219 µM; in the assay on HOP-92 NSCLC, 0.233 µM; in the assay on MALME-3M melanoma, 0.316 µM. Besides, the TGI in the assay with HCT-116 colon is above 46 µM; in the assay on SF-539 CNS, 0.757 µM; in the assay on UACC-62 melanoma, 1.94 µM; in the assay with MDA-MB-231 breast, above 100 µM; in the assay on SF-295 CNS, 3.81 µM; in the assay with T-47D breast, above 100 µM. The figures for the TGI with HOP-92 NSCLC and with MALME-3M melanoma were above 100 µM and 3.08 µM, respectively.
For the compound `O=C1C(=O)c2ccccc2C(O)=C1CC=C(Cl)Cl`, the GI50 in the assay on HCT-116 colon was 1.15 µM and 2.96 µM; in the assay with LOX IMVI melanoma it was 2.68 µM; in the assay with SF-539 CNS it was 2.45 µM and 3.72 µM; in the assay with UACC-62 melanoma it was 6.1 µM and 8.42 µM; in the assay with MDA-MB-231 breast, 3.59 µM; in the assay on SF-295 CNS, 9.87 µM and 7.86 µM. Further, the GI50 with T-47D breast is 11 µM and 20.1 µM; in the assay on IGROV1 ovarian it was 4.93 µM and 8.27 µM; with HOP-92 NSCLC, 14.2 µM and 11.8 µM; in the assay on MALME-3M melanoma it was 16.2 µM and 28.2 µM. In addition, the TGI with HCT-116 colon was 29.7 µM and 44 µM and > 100 µM; in the assay with LOX IMVI melanoma, 30.7 µM and 51.9 µM and > 100 µM; with SF-539 CNS, 54.3 µM and 107 µM and > 100 µM; with UACC-62 melanoma, 40 µM and 81.7 µM and > 100 µM; in the assay with MDA-MB-231 breast, > 52.8 µM and 119 µM and 56.2 µM; in the assay with SF-295 CNS, 75.5 µM and 137 µM. Moreover, the TGI was 49.3 µM and 213 µM and > 100 µM in the assay on T-47D breast; 119 µM and > 100 µM in the assay on IGROV1 ovarian; 50.8 µM and 122 µM and 47.3 µM in the assay with HOP-92 NSCLC; 51.8 µM and 42.5 µM and 94.5 µM in the assay with MALME-3M melanoma.
On to `CCCCCCC#CC#Cc1cccc(=O)o1`, for which the GI50 in the assay on HCT-116 colon was 0.985 µM; with LOX IMVI melanoma, 0.122 µM; with SF-539 CNS, 3.19 µM; in the assay on UACC-62 melanoma it was 1.45 µM; with MDA-MB-231 breast, 1.64 µM; in the assay on SF-295 CNS, 6.75 µM. Also, the GI50 in the assay on T-47D breast was 16.6 µM; in the assay on IGROV1 ovarian it was 2.35 µM; with HOP-92 NSCLC, 3.24 µM; with MALME-3M melanoma, 1.56 µM. For the same compound, the TGI in the assay on HCT-116 colon was 2.34 µM; in the assay with LOX IMVI melanoma, 0.43 µM; with SF-539 CNS, 12 µM; in the assay on UACC-62 melanoma, 2.86 µM; in the assay with MDA-MB-231 breast, 3.72 µM; with SF-295 CNS it was 22.4 µM. Besides, the TGI with T-47D breast worked out at 57.2 µM; in the assay on HOP-92 NSCLC, 8.92 µM; in the assay on MALME-3M melanoma, 3.79 µM.
Take `C(=C\c1nccc2c1[nH]c1ccccc12)/c1ccccc1`: the GI50 was 2.71 µM with HCT-116 colon; 2.99 µM in the assay with LOX IMVI melanoma; 1.98 µM in the assay on SF-539 CNS; 3.48 µM with UACC-62 melanoma; 1.76 µM in the assay with MDA-MB-231 breast; 0.714 µM in the assay on SF-295 CNS. The GI50 in the assay with T-47D breast is 3.6 µM; in the assay with IGROV1 ovarian, 0.664 µM; in the assay with HOP-92 NSCLC, 2.19 µM; in the assay on MALME-3M melanoma it was 4.5 µM. Besides, the TGI is 10.7 µM with HCT-116 colon; 12.2 µM in the assay on LOX IMVI melanoma; 4.51 µM with SF-539 CNS; 23.9 µM in the assay with UACC-62 melanoma; 8.02 µM with MDA-MB-231 breast; 3.21 µM in the assay with SF-295 CNS. The TGI was determined as 28.2 µM in the assay with T-47D breast, 23.6 µM with IGROV1 ovarian, 19.8 µM with HOP-92 NSCLC and 27.7 µM with MALME-3M melanoma.
`COc1cc(C2=NN(c3ccc(S(N)(=O)=O)cc3)C(c3ccc(Cl)cc3)C2)cc(OC)c1OC` (stereo not given): the GI50 was 3.41 µM with HCT-116 colon; 5.15 µM in the assay with LOX IMVI melanoma; 5.12 µM in the assay on SF-539 CNS; 4.12 µM with UACC-62 melanoma; 3.95 µM with MDA-MB-231 breast; 2.53 µM in the assay on SF-295 CNS. The GI50 in the assay with T-47D breast was 1.74 µM; in the assay on IGROV1 ovarian, 8.09 µM; with HOP-92 NSCLC, 2.02 µM; in the assay with MALME-3M melanoma, 11.4 µM. The TGI in the assay on HCT-116 colon is above 100 µM; in the assay with LOX IMVI melanoma, above 100 µM; with SF-539 CNS, above 100 µM; in the assay on UACC-62 melanoma, above 100 µM; in the assay on MDA-MB-231 breast it was above 100 µM; with SF-295 CNS, 6.55 µM. In addition, the TGI was 14.7 µM in the assay on T-47D breast, above 100 µM in the assay with IGROV1 ovarian, 14.5 µM with HOP-92 NSCLC and above 100 µM in the assay on MALME-3M melanoma.
For `COc1ccc(CC(NC(=O)[C@H](C)NC(=O)CN2CCOCC2)C(=O)N[C@@H](Cc2ccccc2)C(=O)[C@@]2(C)CO2)cc1` (stereo not given in full), the GI50 is 0.181 µM with HCT-116 colon; 0.148 µM in the assay on LOX IMVI melanoma; 0.221 µM with SF-539 CNS; 0.182 µM with UACC-62 melanoma; 0.24 µM in the assay on MDA-MB-231 breast; 0.185 µM with SF-295 CNS. Besides, the GI50 in the assay with T-47D breast was 0.208 µM; in the assay with IGROV1 ovarian, 0.409 µM; in the assay with HOP-92 NSCLC it was 0.227 µM; with MALME-3M melanoma it was 0.281 µM. Further, the TGI in the assay on HCT-116 colon turned out to be 0.49 µM; in the assay on LOX IMVI melanoma, 0.379 µM; in the assay with SF-539 CNS, 0.591 µM; in the assay with UACC-62 melanoma, 0.479 µM; with MDA-MB-231 breast, 1.1 µM; in the assay with SF-295 CNS, 0.587 µM. The TGI in the assay on T-47D breast is 0.482 µM; with IGROV1 ovarian, 7.3 µM; in the assay with HOP-92 NSCLC, 0.758 µM; with MALME-3M melanoma, 1.41 µM.
